Measured values reported in patent publication US8609661B2, “Pyrimido-pyrrolo-quinoxalinedione inhibitors of cystic fibrosis transmembrane conductance regulator protein and uses therefor” (The Regents of the University of California, priority 2009, dated 2013).
Read-outs that look alike come from different tables or passages of the source.

Biological target: T1, human wildtype CFTR (Homo sapiens, UniProt P13569)
T1 construct: expressed in transfected cells; host or cells: Fischer rat thyroid (FRT) cells
Assay: Fluorescence platereader assay of CFTR-mediated iodide influx (YFP quenching) in FRT cells
Type: cell-based
Conditions: for inhibition at 5 µM / inhibition at 25 µM: FRT; for IC50: apparent IC50 from concentration-inhibition data, fluorescence platereader assay
Experimental: A. Cell lines and compounds—Fischer rat thyroid (FRT) cells co-expressing human wildtype CFTR and the halide indicator YFP-H148Q/1152L were generated as described (see, e.g., Ma et al., J. Clin. Invest. 110:1651-1658 (2002)). Cells were plated in 96-well black-walled microplates (Corning Costar) at a density of 20,000 cells per well in Coon's modified F12 medium supplemented with 5% fetal calf serum, 2 mM L-glutamine, 100 U/mL penicillin, and 100 μg/ml streptomycin. Assays were performed at 48 h after plating the cells when the cells were just confluent. For some experiments, measurements were made using T84 human intestinal epithelial cells and for other experiments, measurements were obtained using primary cultures of human bronchial epithelial cells, which were obtained and grown essentially as previously described (see, e.g., 3 and 27).
B. Compound Screening—Assays were performed using an automated screening platform (Beckman) equipped with FLUOStar fluorescence platereaders (BMG Lab Technologies, Offenburg, Germany) as described (see Ma et al., supra). Each well of a 96-well plate containing FRT cells was washed 3 times in PBS (300 μL/wash), leaving 50 μL PBS. […] After 15 min, 96-well plates were transferred to a plate reader for fluorescence assay. Each well was assayed individually for CFTR-mediated iodide influx by recording fluorescence continuously (200 ms per point) for 2 s (baseline) and then for 10 s after rapid addition of 160 μL of isosmolar PBS in which 137 mM chloride was replaced by iodide. The initial rate of iodide influx was computed from fluorescence data by non-linear regression.
Collections of synthetic and natural compounds were screened according to the screening procedures described in Example 2. A cell-based fluorescence assay was used in which CFTR inhibitors were identified by reduced iodide influx in FRT cells co-expressing human CFTR and a YFP halide sensor. CFTR was maximally activated by a mixture of agonists having different activating mechanisms. Inhibition of iodide influx was observed as reduced YFP fluorescence quenching in response to rapid iodide addition to each well of 96-well plates. […]

[1] = Table 2, screening, 5 μM, read-out: % Inhibition at 5 μM
[2] = Table 2, screening, 25 μM, read-out: % Inhibition at 25 μM
[3] = read-out: % inhibition at 25/5 μM (5 μM value), Table 1, 5 μM compound
[4] = read-out: % inhibition at 25/5 μM (25 μM value), Table 1, 25 μM compound

T1 sequence (P13569 whole entry): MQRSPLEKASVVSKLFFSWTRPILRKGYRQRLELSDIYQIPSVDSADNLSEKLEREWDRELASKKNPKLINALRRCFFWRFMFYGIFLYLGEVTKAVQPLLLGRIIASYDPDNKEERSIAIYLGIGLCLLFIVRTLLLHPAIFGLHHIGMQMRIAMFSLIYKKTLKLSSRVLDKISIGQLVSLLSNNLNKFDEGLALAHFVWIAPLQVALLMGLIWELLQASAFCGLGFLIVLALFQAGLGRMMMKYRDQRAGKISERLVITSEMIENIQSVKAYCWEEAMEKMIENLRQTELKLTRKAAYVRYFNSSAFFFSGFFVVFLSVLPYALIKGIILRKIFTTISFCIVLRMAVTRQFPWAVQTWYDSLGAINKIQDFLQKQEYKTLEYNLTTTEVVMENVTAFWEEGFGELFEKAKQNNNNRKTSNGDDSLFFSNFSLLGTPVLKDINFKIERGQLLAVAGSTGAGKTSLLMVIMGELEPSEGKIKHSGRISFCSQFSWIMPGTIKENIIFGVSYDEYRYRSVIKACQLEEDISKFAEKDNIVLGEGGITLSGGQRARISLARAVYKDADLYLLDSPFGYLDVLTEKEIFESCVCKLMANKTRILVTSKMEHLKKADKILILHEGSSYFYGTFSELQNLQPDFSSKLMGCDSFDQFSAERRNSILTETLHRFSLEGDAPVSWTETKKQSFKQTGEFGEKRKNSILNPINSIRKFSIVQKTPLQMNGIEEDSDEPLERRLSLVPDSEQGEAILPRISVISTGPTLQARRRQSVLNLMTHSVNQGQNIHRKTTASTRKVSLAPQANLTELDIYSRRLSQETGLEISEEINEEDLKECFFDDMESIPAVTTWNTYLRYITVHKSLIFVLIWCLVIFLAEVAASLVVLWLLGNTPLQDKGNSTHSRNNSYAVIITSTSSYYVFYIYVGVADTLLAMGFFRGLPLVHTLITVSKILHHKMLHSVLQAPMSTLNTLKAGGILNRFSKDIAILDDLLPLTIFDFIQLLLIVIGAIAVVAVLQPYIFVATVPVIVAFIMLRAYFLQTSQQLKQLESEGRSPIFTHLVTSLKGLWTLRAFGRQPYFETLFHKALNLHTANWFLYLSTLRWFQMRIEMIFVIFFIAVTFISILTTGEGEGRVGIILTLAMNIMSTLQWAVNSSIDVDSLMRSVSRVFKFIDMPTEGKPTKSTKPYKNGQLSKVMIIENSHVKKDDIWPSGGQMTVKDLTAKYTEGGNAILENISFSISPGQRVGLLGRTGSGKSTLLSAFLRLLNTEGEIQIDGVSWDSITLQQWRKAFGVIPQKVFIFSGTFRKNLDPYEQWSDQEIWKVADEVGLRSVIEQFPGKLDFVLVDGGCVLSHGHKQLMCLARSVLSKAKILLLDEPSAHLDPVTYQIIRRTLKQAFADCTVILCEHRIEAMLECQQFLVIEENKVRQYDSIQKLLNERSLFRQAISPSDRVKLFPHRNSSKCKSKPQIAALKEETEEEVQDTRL

SMILES	inhibition at 5 µM [1]	inhibition at 25 µM [2]	inhibition at 5 µM [3]	inhibition at 25 µM [4]	IC50
Cc1ccc(-c2c3c(=O)n(C)c(=O)n(C)c3c3n2-c2ccccc2NC3c2ccc(C)o2)cc1 (centres unmarked) [PPQ-110, 7,9-Dimethyl-11-(4-methylphenyl)-6-(5-methylfuran-2-yl)-5,6-dihydro-pyrimido[4′,5′-3,4]pyrrolo[1,2-a]quinoxaline-8,10-(7H,9H)-dione]	21%	57%	–	–	–
Cc1ccccc1-c1c2c(=O)n(C)c(=O)n(C)c2c2n1-c1ccccc1NC2c1cccc([N+](=O)[O-])c1 (centres unmarked) [PPQ-213, 7,9-Dimethyl-11-(2-methylphenyl)-6-(3-nitrophenyl)-5,6-dihydro-pyrimido[4′,5′-3,4]pyrrolo[1,2-a]quinoxaline-8,10-(7H,9H)-dione]	64%	96%	64%	96%	2000 nM
COc1ccc(-c2c3c(=O)n(C)c(=O)n(C)c3c3n2-c2ccccc2NC3c2cccc(F)c2)cc1 (centres unmarked)	< 10%	37%	–	–	–
COc1cccc(C2Nc3ccccc3-n3c(-c4ccccc4)c4c(=O)n(C)c(=O)n(C)c4c32)c1 (centres unmarked) [PPQ-204, 7,9-Dimethyl-11-phenyl-6-(3-methoxyphenyl)-5,6-dihydro-pyrimido[4′,5′-3,4]pyrrolo[1,2-a]quinoxaline-8,10-(7H,9H)-dione]	63%	86%	63%	86%	1700 nM
Cn1c(=O)c2c(-c3ccccc3)n3c(c2n(C)c1=O)C(c1cc([N+](=O)[O-])ccc1O)Nc1ccccc1-3 (centres unmarked)	12%	40%	–	–	–
COc1ccc(-c2c3c(=O)n(C)c(=O)n(C)c3c3n2-c2ccccc2NC3c2ccccc2F)cc1 (centres unmarked)	< 10%	39%	–	–	–
Cc1cc2c(cc1C)-n1c(-c3ccccc3)c3c(=O)n(C)c(=O)n(C)c3c1C(c1ccc(O)cc1O)N2 (centres unmarked) [PPQ-235, 2,3,7,9-Tetramethyl-11-phenyl-6-(2,4-dihydroxyphenyl)-5,6-dihydro-pyrimido[4′,5′-3,4]pyrrolo[1,2-a]quinoxaline-8,10-(7H,9H)-dione]	12%	80%	–	–	–
Cn1c(=O)c2c(-c3ccccc3)n3c(c2n(C)c1=O)C(c1cccc(F)c1F)Nc1ccccc1-3 (centres unmarked) [PPQ-201, 7,9-Dimethyl-11-phenyl-6-(2,3-difluorophenyl)-5,6-dihydro-pyrimido[4′,5′-3,4]pyrrolo[1,2-a]quinoxaline-8,10-(7H,9H)-dione]	72%	93%	72%	93%	1200 nM
COc1cccc(C2Nc3ccccc3-n3c(-c4ccc(Cl)cc4)c4c(=O)n(C)c(=O)n(C)c4c32)c1 (centres unmarked)	< 10%	41%	–	–	–
Cc1cc2c(cc1C)-n1c(-c3ccccc3F)c3c(=O)n(C)c(=O)n(C)c3c1C(c1ccccc1F)N2 (centres unmarked)	23%	35%	–	–	–
COc1ccc(-c2c3c(=O)n(C)c(=O)n(C)c3c3n2-c2ccccc2NC3c2ccc(C)o2)cc1 (centres unmarked) [PPQ-109, 7,9-Dimethyl-11-(4-methoxyphenyl)-6-(5-methylfuran-2-yl)-5,6-dihydro-pyrimido[4′,5′-3,4]pyrrolo[1,2-a]quinoxaline-8,10-(7H,9H)-dione]	12%	68%	–	–	–
COc1ccc(C2Nc3ccccc3-n3c(-c4ccccc4F)c4c(=O)n(C)c(=O)n(C)c4c32)cc1 (centres unmarked)	< 10%	33%	–	–	–
Cc1ccccc1-c1c2c(=O)n(C)c(=O)n(C)c2c2n1-c1ccccc1NC2c1cccc(O)c1O (centres unmarked)	< 10%	30%	–	–	–
Cc1ccccc1C1Nc2ccccc2-n2c(-c3ccccc3)c3c(=O)n(C)c(=O)n(C)c3c21 (centres unmarked)	13%	41%	–	–	–
Cc1cc2c(cc1C)-n1c(-c3ccccc3F)c3c(=O)n(C)c(=O)n(C)c3c1C(c1ccco1)N2 (centres unmarked)	41%	44%	–	–	–
COc1ccc(-c2c3c(=O)n(C)c(=O)n(C)c3c3n2-c2ccccc2NC3c2cccc(OC)c2)cc1 (centres unmarked)	13%	47%	–	–	–

SMILES	inhibition at 5 µM [1]	inhibition at 25 µM [2]	inhibition at 5 µM [3]	inhibition at 25 µM [4]	IC50
Cc1ccc(-c2c3c(=O)n(C)c(=O)n(C)c3c3n2-c2ccccc2NC3c2cccs2)cc1 (centres unmarked)	< 10%	35%	–	–	–
Cc1cccc(-c2c3c(=O)n(C)c(=O)n(C)c3c3n2-c2ccccc2NC3c2ccccc2F)c1 (centres unmarked) [PPQ-215, 7,9-Dimethyl-11-(3-methylphenyl)-6-(2-fluorophenyl)-5,6-dihydro-pyrimido[4′,5′-3,4]pyrrolo[1,2-a]quinoxaline-8,10-(7H,9H)-dione]	67%	80%	67%	80%	2500 nM
Cc1ccccc1-c1c2c(=O)n(C)c(=O)n(C)c2c2n1-c1ccccc1NC2c1ccc(C#N)cc1 (centres unmarked)	< 10%	45%	–	–	–
Cc1cccc(-c2c3c(=O)n(C)c(=O)n(C)c3c3n2-c2ccccc2NC3c2cccc([N+](=O)[O-])c2)c1 (centres unmarked) [PPQ-225, 7,9-Dimethyl-11-(3-methylphenyl)-6-(3-nitrophenyl)-5,6-dihydro-pyrimido[4′,5′-3,4]pyrrolo[1,2-a]quinoxaline-8,10-(7H,9H)-dione]	61%	94%	–	–	–
CCOc1cc(C2Nc3ccccc3-n3c(-c4ccccc4)c4c(=O)n(C)c(=O)n(C)c4c32)ccc1O (centres unmarked)	< 10%	47%	–	–	–
Cc1cccc(-c2c3c(=O)n(C)c(=O)n(C)c3c3n2-c2ccccc2NC3c2ccccc2)c1 (centres unmarked) [PPQ-250, 7,9-Dimethyl-11-(3-methylphenyl)-6-phenyl-5,6-dihydro-pyrimido[4′,5′-3,4]pyrrolo[1,2-a]quinoxaline-8,10-(7H,9H)-dione]	49%	64%	–	–	–
Cn1c(=O)c2c(-c3ccccc3F)n3c(c2n(C)c1=O)C(c1ccc(O)cc1O)Nc1ccccc1-3 (centres unmarked)	< 10%	36%	–	–	–
COc1cc(C2Nc3ccccc3-n3c(-c4ccccc4F)c4c(=O)n(C)c(=O)n(C)c4c32)ccc1O (centres unmarked) [PPQ-251, 7,9-Dimethyl-11-(2-fluorophenyl)-6-(3-methoxy-4-hydroxyphenyl)-5,6-dihydro-pyrimido[4′,5′-3,4]pyrrolo[1,2-a]quinoxaline-8,10-(7H,9H )-dione]	13%	62%	–	–	–
Cc1ccc(C2Nc3ccccc3-n3c(-c4ccccc4C)c4c(=O)n(C)c(=O)n(C)c4c32)o1 (centres unmarked) [PPQ-103, 7,9-Dimethyl-11-(2-methylphenyl)-6-(5-methylfuran-2-yl)-5,6-dihydro-pyrimido[4′,5′-3,4]pyrrolo[1,2-a]quinoxaline-8,10-(7H,9H)-dione]	63%	> 95%	–	–	800 nM
Cc1cc2c(cc1C)-n1c(-c3ccccc3)c3c(=O)n(C)c(=O)n(C)c3c1C(c1cccc(O)c1O)N2 (centres unmarked) [PPQ-236, 2,3,7,9-Tetramethyl-11-phenyl-6-(2,3-dihydroxyphenyl)-5,6-dihydro-pyrimido[4′,5′-3,4]pyrrolo[1,2-a]quinoxaline-8,10-(7H,9H)-dione]	14%	80%	–	–	–
COc1cc(C2Nc3ccccc3-n3c(-c4cccc(C)c4)c4c(=O)n(C)c(=O)n(C)c4c32)ccc1O (centres unmarked) [PPQ-241, 7,9-Dimethyl-11-(3-methylphenyl)-6-(3-methoxy-4-hydroxyphenyl)-5,6-dihydro-pyrimido[4′,5′-3,4]pyrrolo[1,2-a]quinoxaline-8,10-(7H,9H)-dione]	16%	74%	–	–	–
COc1ccc(-c2c3c(=O)n(C)c(=O)n(C)c3c3n2-c2ccccc2NC3c2cccc(O)c2)cc1 (centres unmarked)	< 10%	33%	–	–	–
Cc1cccc(C2Nc3ccccc3-n3c(-c4ccccc4C)c4c(=O)n(C)c(=O)n(C)c4c32)c1 (centres unmarked) [PPQ-217, 7,9-Dimethyl-11-(2-methylphenyl)-6-(3-methylphenyl)-5,6-dihydro-pyrimido[4′,5′-3,4]pyrrolo[1,2-a]quinoxaline-8,10-(7H,9H)-dione]	46%	> 95%	46%	–	3000 nM
Cn1c(=O)c2c(-c3ccc(Cl)cc3)n3c(c2n(C)c1=O)C(c1ccccc1)Nc1ccccc1-3 (centres unmarked)	< 10%	34%	–	–	–
Cc1ccc(C2Nc3ccccc3-n3c(-c4ccc(Cl)cc4)c4c(=O)n(C)c(=O)n(C)c4c32)o1 (centres unmarked) [PPQ-111, 7,9-Dimethyl-11-(4-cholophenyl)-6-(5-methylfuran-2-yl)-5,6-dihydro-pyrimido[4′,5′-3,4]pyrrolo[1,2-a]quinoxaline-8,10-(7H,9H)-dione]	31%	75%	–	–	–
